In US20240360134A1, “PYRAZOLOPYRIMIDINES AND THEIR USES AS PDGFR INHIBITORS” (priority 2021, published 2024):

Columns and labels:
[1] = molecular target: Tb-labeled inactive PDGFRβ (Homo sapiens (Human), UniProt P09619); assay: biochemical; format: binding; settings: read-out: PDGFR Lantha IC50
[2] = molecular target: His6-TEV-PDGFRβ (557-1016) (Homo sapiens (Human), UniProt P09619); assay: PDGFRβ HTRF Assay; format: biochemical; settings: 800 μM ATP, 0.5 μM TK-substrate biotin peptide, 30 min pre-incubation, 3 hours reaction; read-out: PDGFR HTRF IC50
PDGFRβ = PDGFRβ (Rattus norvegicus (Rat), UniProt Q05030); assay: PDGFRβ Cellular Assay (PDGFRb P-Y751 HTRF, PDGF-BB stimulated A10 cells); format: cell-based; settings: A10 cells, 3 hours compound, 15 ng/mL PDGFbb for 10 minutes; read-out: PDGFR Cellular IC50
Summary of the method: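 Rat A10 cells plated overnight were treated with compound for 3 h, stimulated with rat PDGF-BB (working stock 100 ng/mL in 10% FBS medium) for 10 min, then lysed.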

VEGFR2, unphosphorylated = VEGFR2, unphosphorylated (Homo sapiens (Human), UniProt P35968); assay: VEGFR ADP GLO assay; format: biochemical; settings: 5 nM VEGFR2, 1.2 mM ATP, 1 mg/mL Srctide, 180 min
Summary of the method: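 Luminescent ADP detection after a 180-min room-temperature reaction of srctide plus ATP (2 mg/mL and 2.4 mM in 2× mix) in pH 7.5 HEPES buffer with DTT, Pluronic and ovalbumin. Compounds, 11 points from 10 µM, first pre-incubated 30 min with enzyme (2× mix 10 nM). IC50s fitted after scaling between DMSO and 1 µM TAK-593 controls.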

Sequence of PDGFRβ (Q05030 whole entry, looked up): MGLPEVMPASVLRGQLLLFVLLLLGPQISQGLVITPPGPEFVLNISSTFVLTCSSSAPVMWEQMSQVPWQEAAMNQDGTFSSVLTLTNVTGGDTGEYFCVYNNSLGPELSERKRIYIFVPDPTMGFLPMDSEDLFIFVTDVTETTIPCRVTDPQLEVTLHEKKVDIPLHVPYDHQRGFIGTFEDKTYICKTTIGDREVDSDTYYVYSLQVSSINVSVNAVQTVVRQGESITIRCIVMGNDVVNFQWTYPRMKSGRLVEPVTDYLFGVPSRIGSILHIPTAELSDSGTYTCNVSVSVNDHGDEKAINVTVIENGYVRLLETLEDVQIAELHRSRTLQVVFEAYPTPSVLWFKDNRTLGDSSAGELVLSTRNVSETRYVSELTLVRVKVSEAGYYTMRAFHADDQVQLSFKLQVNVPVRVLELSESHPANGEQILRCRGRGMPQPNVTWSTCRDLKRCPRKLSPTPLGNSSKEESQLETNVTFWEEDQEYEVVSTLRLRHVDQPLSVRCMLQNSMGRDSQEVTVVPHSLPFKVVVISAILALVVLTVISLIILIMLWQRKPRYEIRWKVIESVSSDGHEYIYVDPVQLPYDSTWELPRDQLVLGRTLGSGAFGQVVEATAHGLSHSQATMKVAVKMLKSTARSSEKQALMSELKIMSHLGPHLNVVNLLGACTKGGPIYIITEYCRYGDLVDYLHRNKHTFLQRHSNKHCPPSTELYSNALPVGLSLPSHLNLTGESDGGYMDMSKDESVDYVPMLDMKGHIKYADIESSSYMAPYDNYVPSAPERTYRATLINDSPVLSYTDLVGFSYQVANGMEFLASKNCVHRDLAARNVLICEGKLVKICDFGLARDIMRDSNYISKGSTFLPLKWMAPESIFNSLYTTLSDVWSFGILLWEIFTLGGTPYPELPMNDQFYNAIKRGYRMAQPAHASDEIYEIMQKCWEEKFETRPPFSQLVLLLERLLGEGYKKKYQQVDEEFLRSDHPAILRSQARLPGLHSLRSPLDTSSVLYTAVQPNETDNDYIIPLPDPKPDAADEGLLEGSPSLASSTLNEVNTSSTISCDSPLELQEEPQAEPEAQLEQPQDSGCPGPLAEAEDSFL
Sequence of VEGFR2, unphosphorylated (P35968 whole entry, looked up): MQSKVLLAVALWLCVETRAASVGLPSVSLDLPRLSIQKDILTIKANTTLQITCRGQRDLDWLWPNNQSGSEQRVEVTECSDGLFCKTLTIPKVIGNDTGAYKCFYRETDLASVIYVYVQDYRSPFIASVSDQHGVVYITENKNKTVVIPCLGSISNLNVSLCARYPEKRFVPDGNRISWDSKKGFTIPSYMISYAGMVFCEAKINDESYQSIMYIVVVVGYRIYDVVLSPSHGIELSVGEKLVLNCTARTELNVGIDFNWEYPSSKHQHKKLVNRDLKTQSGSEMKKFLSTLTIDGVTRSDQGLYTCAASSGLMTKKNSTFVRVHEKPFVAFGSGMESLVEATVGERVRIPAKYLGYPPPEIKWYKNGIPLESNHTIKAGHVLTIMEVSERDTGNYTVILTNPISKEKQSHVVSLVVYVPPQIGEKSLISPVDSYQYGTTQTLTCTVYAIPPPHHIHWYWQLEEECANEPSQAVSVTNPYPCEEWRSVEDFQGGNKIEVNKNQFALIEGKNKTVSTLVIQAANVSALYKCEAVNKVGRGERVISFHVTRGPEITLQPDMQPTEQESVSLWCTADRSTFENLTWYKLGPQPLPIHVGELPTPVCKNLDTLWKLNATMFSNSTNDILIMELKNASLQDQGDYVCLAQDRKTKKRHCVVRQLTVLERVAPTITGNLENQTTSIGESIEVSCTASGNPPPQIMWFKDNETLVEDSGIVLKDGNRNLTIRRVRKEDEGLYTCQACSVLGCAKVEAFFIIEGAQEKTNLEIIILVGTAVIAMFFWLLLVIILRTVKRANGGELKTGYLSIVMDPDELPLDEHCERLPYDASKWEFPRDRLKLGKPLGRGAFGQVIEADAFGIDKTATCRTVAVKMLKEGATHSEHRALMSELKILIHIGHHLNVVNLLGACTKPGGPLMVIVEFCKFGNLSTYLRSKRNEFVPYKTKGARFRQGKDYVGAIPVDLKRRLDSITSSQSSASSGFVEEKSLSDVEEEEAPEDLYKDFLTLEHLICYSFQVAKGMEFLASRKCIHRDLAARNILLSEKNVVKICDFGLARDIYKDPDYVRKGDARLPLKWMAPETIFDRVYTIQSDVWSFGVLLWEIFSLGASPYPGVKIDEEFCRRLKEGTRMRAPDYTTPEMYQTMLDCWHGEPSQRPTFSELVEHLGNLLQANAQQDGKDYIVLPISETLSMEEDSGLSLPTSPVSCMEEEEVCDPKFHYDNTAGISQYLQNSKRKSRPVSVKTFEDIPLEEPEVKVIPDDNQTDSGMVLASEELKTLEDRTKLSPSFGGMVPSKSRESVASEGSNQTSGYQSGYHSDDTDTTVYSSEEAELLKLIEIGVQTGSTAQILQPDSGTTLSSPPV
Sequence of His6-TEV-PDGFRβ (557-1016) (P09619 whole entry, looked up): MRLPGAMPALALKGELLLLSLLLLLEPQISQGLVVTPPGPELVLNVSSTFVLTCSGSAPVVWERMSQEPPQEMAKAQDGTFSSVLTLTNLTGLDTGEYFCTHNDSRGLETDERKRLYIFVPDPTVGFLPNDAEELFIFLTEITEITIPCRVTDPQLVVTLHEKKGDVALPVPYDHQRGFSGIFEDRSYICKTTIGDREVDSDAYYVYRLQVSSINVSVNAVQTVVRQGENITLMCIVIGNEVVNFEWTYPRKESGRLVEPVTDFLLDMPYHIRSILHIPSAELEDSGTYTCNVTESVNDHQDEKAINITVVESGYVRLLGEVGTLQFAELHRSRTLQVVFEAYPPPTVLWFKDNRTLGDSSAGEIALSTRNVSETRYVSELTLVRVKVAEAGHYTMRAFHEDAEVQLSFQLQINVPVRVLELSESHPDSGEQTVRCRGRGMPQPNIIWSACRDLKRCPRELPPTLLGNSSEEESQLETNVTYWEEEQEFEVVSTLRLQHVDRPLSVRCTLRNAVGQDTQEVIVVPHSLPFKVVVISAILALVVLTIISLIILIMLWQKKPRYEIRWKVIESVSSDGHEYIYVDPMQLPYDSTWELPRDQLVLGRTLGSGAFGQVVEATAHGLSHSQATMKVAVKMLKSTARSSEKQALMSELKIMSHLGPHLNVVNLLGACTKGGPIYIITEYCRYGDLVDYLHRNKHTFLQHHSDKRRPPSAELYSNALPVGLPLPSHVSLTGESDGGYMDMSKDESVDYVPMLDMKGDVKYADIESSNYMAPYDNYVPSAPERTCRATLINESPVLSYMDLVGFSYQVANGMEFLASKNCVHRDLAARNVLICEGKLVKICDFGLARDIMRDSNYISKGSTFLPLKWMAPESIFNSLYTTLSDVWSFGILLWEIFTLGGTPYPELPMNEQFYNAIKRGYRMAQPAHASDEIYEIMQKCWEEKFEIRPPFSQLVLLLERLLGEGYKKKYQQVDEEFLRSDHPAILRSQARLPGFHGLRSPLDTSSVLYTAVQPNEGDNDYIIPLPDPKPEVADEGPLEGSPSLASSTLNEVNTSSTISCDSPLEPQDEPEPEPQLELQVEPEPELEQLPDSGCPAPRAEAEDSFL
Sequence of Tb-labeled inactive PDGFRβ (P09619 whole entry, looked up): as above

Row | SMILES | IC50 [1] [nM] | IC50 [2] [nM] | IC50 (PDGFRβ) [nM] | IC50 (VEGFR2, unphosphorylated) [nM]
1 | COCCn1cc(Nc2ncc3c(Nc4cc(NC(=O)CN5CCC(C)(C)C5)cnc4C)nn(C)c3n2)cn1 [Example 129, 2-(3,3-dimethylpyrrolidin-1-yl)-N-(5-((6-((1-(2-methoxyethyl)-1H-pyrazol-4-yl)amino)-1-methyl-1H-pyrazolo[3,4-d]pyrimidin-3-yl)amino)-6-methylpyridin-3-yl)acetamide] | 1.3 | 0.27 | 2.4 | 1420
2 | COCCn1cc(Nc2ncc3c(Nc4cc(NC(=O)CN5CCC56CCC6)cnc4C)nn(C)c3n2)cn1 [Example 130, N-(5-((6-((1-(2-methoxyethyl)-1H-pyrazol-4-yl)amino)-1-methyl-1H-pyrazolo[3,4-d]pyrimidin-3-yl)amino)-6-methylpyridin-3-yl)-2-(1-azaspiro[3.3]heptan-1-yl)acetamide] | 1.5 | 0.37 | 4.7 | > 7500
3 | COCCn1cc(Nc2ncc3c(Nc4cc(NC(=O)CN5CCCC56CCC6)cnc4C)nn(C)c3n2)cn1 [Example 132, N-(5-((6-((1-(2-methoxyethyl)-1H-pyrazol-4-yl)amino)-1-methyl-1H-pyrazolo[3,4-d]pyrimidin-3-yl)amino)-6-methylpyridin-3-yl)-2-(5-azaspiro[3.4]octan-5-yl)acetamide] | 2 | 0.35 | 3.2 | > 7500
4 | Cc1ncc(NC(=O)CN(CCF)C2CCCC2)cc1Nc1nn(C)c2nc(Nc3cnn(C)c3)ncc12 [Example 133, 2-(cyclopentyl(2-fluoroethyl)amino)-N-(6-methyl-5-((1-methyl-6-((1-methyl-1H-pyrazol-4-yl)amino)-1H-pyrazolo[3,4-d]pyrimidin-3-yl)amino)pyridin-3-yl)acetamide] | 2.4 | 0.44 | 4.1 | 5550
5 | COC1CCN(CC(=O)Nc2cnc(C)c(Nc3nn(C)c4nc(Nc5cnn(C)c5)ncc34)c2)CC1 [Example 134, 2-(4-methoxypiperidin-1-yl)-N-(6-methyl-5-((1-methyl-6-((1-methyl-1H-pyrazol-4-yl)amino)-1H-pyrazolo[3,4-d]pyrimidin-3-yl)amino)pyridin-3-yl)acetamide] | 3.1 | 0.43 | 7.4 | > 7500
6 | CO[C@@H]1CCN(CC(=O)Nc2cnc(C)c(Nc3nn(C)c4nc(Nc5cnn(C)c5)ncc34)c2)C1 [Example 135, (R)-2-(3-methoxypyrrolidin-1-yl)-N-(6-methyl-5-((1-methyl-6-((1-methyl-1H-pyrazol-4-yl)amino)-1H-pyrazolo[3,4-d]pyrimidin-3-yl)amino)pyridin-3-yl)acetamide] | 2.8 | 0.41 | 9.5 | > 7500
7 | CO[C@H]1CCN(CC(=O)Nc2cnc(C)c(Nc3nn(C)c4nc(Nc5cnn(C)c5)ncc34)c2)C1 [Example 136, (S)-2-(3-methoxypyrrolidin-1-yl)-N-(6-methyl-5-((1-methyl-6-((1-methyl-1H-pyrazol-4-yl)amino)-1H-pyrazolo[3,4-d]pyrimidin-3-yl)amino)pyridin-3-yl)acetamide] | 3.7 | 0.52 | 12.2 | > 7500
8 | COC1CN(CC(=O)Nc2cnc(C)c(Nc3nn(C)c4nc(Nc5cnn(C)c5)ncc34)c2)C1 [Example 137, 2-(3-methoxyazetidin-1-yl)-N-(6-methyl-5-((1-methyl-6-((1-methyl-1H-pyrazol-4-yl)amino)-1H-pyrazolo[3,4-d]pyrimidin-3-yl)amino)pyridin-3-yl)acetamide] | 4.5 | 0.49 | 20.9 | > 7500
9 | Cc1ncc(NC(=O)CN2CCCC2)cc1Nc1nn(C)c2nc(Nc3cnn(C)c3)ncc12 [Example 138, N-(6-methyl-5-((1-methyl-6-((1-methyl-1H-pyrazol-4-yl)amino)-1H-pyrazolo[3,4-d]pyrimidin-3-yl)amino)pyridin-3-yl)-2-(pyrrolidin-1-yl)acetamide] | 2.1 | 0.24 | 3.2 | > 7500
10 | Cc1ncc(NC(=O)CN2CC[C@H](C)C2)cc1Nc1nn(C)c2nc(Nc3cnn(C)c3)ncc12 [Example 140, (S)—N-(6-methyl-5-((1-methyl-6-((1-methyl-1H-pyrazol-4-yl)amino)-1H-pyrazolo[3,4-d]pyrimidin-3-yl)amino)pyridin-3-yl)-2-(3-methylpyrrolidin-1-yl)acetamide] | 1.6 | 0.23 | 2.2 | > 7500
11 | Cc1ncc(NC(=O)CN2CCC[C@@H]2C)cc1Nc1nn(C)c2nc(Nc3cn(C)cn3)ncc12 [Example 142, (S)—N-(6-methyl-5-((1-methyl-6-((1-methyl-1H-imidazol-4-yl)amino)-1H-pyrazolo[3,4-d]pyrimidin-3-yl)amino)pyridin-3-yl)-2-(2-methylpyrrolidin-1-yl)acetamide] | 107 | 4.66 | 13.4 | > 7500
12 | Cc1ncc(NC(=O)CN2CCC[C@@H]2C)cc1Nc1nn(C)c2nc(Nc3ccnn3C)ncc12 [Example 143, (S)—N-(6-methyl-5-((1-methyl-6-((1-methyl-1H-pyrazol-5-yl)amino)-1H-pyrazolo[3,4-d]pyrimidin-3-yl)amino)pyridin-3-yl)-2-(2-methylpyrrolidin-1-yl)acetamide] | 11.7 | 1.2 | 7.4 | > 7500
13 | Cc1ncc(NC(=O)CN2CCC[C@@H]2C)cc1Nc1nn(C)c2nc(Nc3cnn(C4COC4)c3)ncc12 [Example 144, (S)—N-(6-methyl-5-((1-methyl-6-((1-(oxetan-3-yl)-1H-pyrazol-4-yl)amino)-1H-pyrazolo[3,4-d]pyrimidin-3-yl)amino)pyridin-3-yl)-2-(2-methylpyrrolidin-1-yl)acetamide] | 2.8 | 0.35 | 5.1 | > 7500
14 | Cc1ncccc1Nc1ncc2c(Nc3cc(NC(=O)CN4CCC[C@@H]4C)cnc3C)nn(C)c2n1 [Example 145, (S)—N-(6-methyl-5-((1-methyl-6-((2-methylpyridin-3-yl)amino)-1H-pyrazolo[3,4-d]pyrimidin-3-yl)amino)pyridin-3-yl)-2-(2-methylpyrrolidin-1-yl)acetamide] | 15.3 | 1.59 | 8.7 | > 7500
15 | COc1ncccc1Nc1ncc2c(Nc3cc(NC(=O)CN4CCC[C@@H]4C)cnc3C)nn(C)c2n1 [Example 146, (S)—N-(5-((6-((2-methoxypyridin-3-yl)amino)-1-methyl-1H-pyrazolo[3,4-d]pyrimidin-3-yl)amino)-6-methylpyridin-3-yl)-2-(2-methylpyrrolidin-1-yl)acetamide] | 19.7 | 2.33 | 14.1 | > 7500
16 | COCCn1cc(Nc2ncc3c(Nc4cc(C(=O)NCCN5CCCC56CCC6)cnc4C)nn(C)c3n2)cn1 [Example 147, N-(2-(5-azaspiro[3.4]octan-5-yl)ethyl)-5-((6-((1-(2-methoxyethyl)-1H-pyrazol-4-yl)amino)-1-methyl-1H-pyrazolo[3,4-d]pyrimidin-3-yl)amino)-6-methylnicotinamide] | 2.1 | 0.38 | 14.7 | 2670
17 | COCCn1cc(Nc2ncc3c(Nc4cc(C(=O)NCCN5CCCC5(C)C)cnc4C)nn(C)c3n2)cn1 [Example 148, N-(2-(2,2-dimethylpyrrolidin-1-yl)ethyl)-5-((6-((1-(2-methoxyethyl)-1H-pyrazol-4-yl)amino)-1-methyl-1H-pyrazolo[3,4-d]pyrimidin-3-yl)amino)-6-methylnicotinamide] | 4.3 | 0.74 | 64.9 | > 7500
18 | Cc1ncc(C(=O)NCCN2CCC23CCC3)cc1Nc1nn(C)c2nc(Nc3cnn(C)c3)ncc12 [Example 149, N-(2-(1-azaspiro[3.3]heptan-1-yl)ethyl)-6-methyl-5-((1-methyl-6-((1-methyl-1H-pyrazol-4-yl)amino)-1H-pyrazolo [3,4-d]pyrimidin-3-yl)amino)nicotinamide] | 2.2 | 0.36 | 25.4 | 6560
19 | Cc1ncc(C(=O)NCCN2CCCCC23CC3)cc1Nc1nn(C)c2nc(Nc3cnn(C)c3)ncc12 [Example 150, N-(2-(4-azaspiro[2.5]octan-4-yl)ethyl)-6-methyl-5-((1-methyl-6-((1-methyl-1H-pyrazol-4-yl)amino)-1H-pyrazolo[3,4-d]pyrimidin-3-yl)amino)nicotinamide] | 1.2 | 0.3 | 4.3 | 1550
20 | Cc1ncc(C(=O)NCCN2CCCC23CCC3)cc1Nc1nn(C)c2nc(Nc3cnn(C)c3)ncc12 [Example 151, N-(2-(5-azaspiro[3.4]octan-5-yl)ethyl)-6-methyl-5-((1-methyl-6-((1-methyl-1H-pyrazol-4-yl)amino)-1H-pyrazolo[3,4-d]pyrimidin-3-yl)amino)nicotinamide] | 1.7 | 0.29 | 4.8 | 2960
